Test results from PubChem BioAssay (NCI).
Values joined by “and” are separate entries in the source; they are usually repeats but may differ in a detail not shown here. Equal values may be shown once.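 Cells were grown in 96-well plates and exposed to each compound for 48 hours at five concentrations; endpoints were interpolated linearly between bracketing concentrations, or set to the highest concentration if not reached. GI50 = concentration required for 50% inhibition of growth. TGI is the concentration that stops growth completely.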

Columns and labels:
Assay in all cases: NCI anticancer screen, dose series, 48 h
[1] = test system: M14 melanoma
[2] = test system: NCI-H23 lung
[3] = test system: SF-539 CNS
[4] = test system: SF-268 CNS
[5] = test system: SK-MEL-28 melanoma
[6] = test system: UO-31 renal
[7] = test system: COLO 205 colon
[8] = test system: MDA-MB-231 breast
[9] = test system: DU-145 prostate
[10] = test system: HS 578T breast

Structure (SMILES)	TGI [1] [µM]	TGI [2]	TGI [3]	TGI [4] [µM]	TGI [5] [µM]	TGI [6] [µM]	TGI [7]	GI50 [1] [µM]	GI50 [8] [µM]	TGI [8] [µM]	GI50 [2] [µM]	GI50 [9] [µM]	TGI [9] [µM]	GI50 [3] [µM]	GI50 [4] [µM]	GI50 [5] [µM]	GI50 [6] [µM]	GI50 [7] [µM]	GI50 [10] [µM]	TGI [10] [µM]
O=c1nc2occc2cn1C1CC(O)C(CO)O1 (stereo unspecified)	> 100	> 100 µM	> 100 µM	> 100	> 100	> 100	> 100 µM													
Clc1ccc2c(NCCCNc3nccc(Nc4ccc(Br)cc4)n3)ccnc2c1	3.5	3.27 µM	3.37 µM	3.32	3.15	3.01	3.22 µM	1.71	1.79	3.47	1.74	1.86	3.31	1.81	1.73	1.65	1.52	1.64		
O=C1CCCC/C(=C/c2ccccc2)N1	> 100	> 100 µM	> 100 µM	> 100	> 100	> 100	> 100 µM													
CC(=O)O.CC(=O)O.CC(=O)O.CC(=O)O.CC(=O)O.CC(=O)O.O.[Ti].[Ti]	> 100		> 100 µM	> 100	> 100	> 100	> 100 µM	> 100						> 100	> 100	> 100	> 100	> 100		
Cc1ccccc1N1C(=O)/C(=C/c2ccc(N(CCC#N)CCC#N)cc2)N=C1c1cc([N+](=O)[O-])ccc1Cl	> 100	> 100 µM	> 100 µM	> 100	> 100	> 100	72 µM													
CC1OC2CC(=O)OC2C2=C1C(=O)c1c(O)cccc1C2=O (stereo unspecified)	0.193	0.426 µM	0.284 µM	0.436	0.191	0.23	0.0405 µM	0.0611	0.0684	0.334	0.142	0.15	0.284	0.12	0.163	0.0548	0.0725	0.0177	0.261	
C=C(C)[C@@]12OC3(/C=C/C=C/CCCCC)O[C@@H]1[C@@H]1[C@@H]4O[C@]4(CO)[C@@H](O)[C@]4(O)C(=O)C(C)=C[C@H]4[C@@]1(O3)[C@H](C)[C@H]2OC(=O)c1ccccc1	5.38	8.12 µM	2.8 µM	3.15	2.42	1.85	1.6 µM	1.57	0.118	2.27	2.84	0.105	2.11	1.41	1.7	1.18	0.0221	< 0.01	< 0.01	2.21
Cc1ccc(S(=O)(=O)NCC2CCCCC2=O)cc1 (stereo unspecified)	> 100	> 100 µM	> 100 µM	> 100	> 100	> 100	> 100 µM													
O=C(Nc1nc2ncn(CCI)c2c(=O)[nH]1)c1ccccc1	> 100	> 100 µM	> 64.6 µM	50.3	> 100	> 100	> 100 µM													
S=C(N/N=C/c1ccco1)NC12CC3CC(CC(C3)C1)C2	> 100	> 100 µM	> 100 µM	> 100	> 100	> 100	33.4 µM													
O=C1c2ccccc2C(=O)C1(Cl)C1(S(=O)(=O)O)c2ccccc2-c2ccccc21	> 100	> 100 µM	> 100 µM	> 100	> 100	> 100	> 100 µM													
CCOC(=O)Oc1c(OC)cc(C(=O)NC2CCc3cc(OC)c(OC)c(OC)c3-c3ccc(SC)c(=O)cc32)cc1OC (stereo unspecified)	10.7	0.266 µM and 0.0388 µM	0.057 µM and 0.00743 µM	21.4	> 70	> 70	0.191 µM and 0.0613 µM	0.0166			< 0.007			< 0.007	0.0174			0.0138		
CCCCN(CCCC)CC(C(=O)Nc1ccc([N+](=O)[O-])cc1[N+](=O)[O-])/C(C)=N\NC(=S)NN (stereo unspecified)	> 100	> 100 µM	> 100 µM	> 100	> 100	> 100	> 100 µM													
Cc1cc(Br)cc(C)c1NC(=O)C(=O)C(C(=O)c1ccc2ccccc2c1)C1OC(=O)c2ccccc21 (stereo unspecified)	30.2	13.6 µM	11.2 µM		14.2	30.3	50.9 µM													
CSc1nc2c(nc(C)c(=O)n2C2OCC(OC(C)=O)C(OC(C)=O)C2OC(C)=O)c(=O)[nH]1 (stereo unspecified)	> 100	> 100 µM		> 100	> 100	> 100	> 100 µM													
CC(C)=C[C@@H]1C[C@H](C)[C@H]2CC[C@H](C)C3=C2[C@](O)(OC3=O)[C@]1(C)O	> 100		> 100 µM	> 100	> 100	> 100	> 100 µM	> 100	> 100	> 100		> 100	> 100	> 100		> 100	> 100	> 100	> 100	> 100
CC1OC(n2cc(F)c(=O)[nH]c2=O)C=CC1O (stereo unspecified)	> 100	> 100 µM	> 100 µM	> 100	> 100	> 100	> 100 µM													
CC(C)(C)[SiH]12(OC(C(F)(F)F)(C(F)(F)F)c3ccccc31)OC(C(F)(F)F)(C(F)(F)F)c1ccccc12	12.7	9.64 µM	6.54 µM		28.4	19.2	21 µM													
Ic1ccc(Nc2nc3nonc3nc2Nc2ccc(I)cc2)cc1				> 100			0.937 µM		0.209	0.641		0.365	> 100		0.304			0.265	0.329	2.21
COC(=O)C(C(=O)C(=O)Nc1cccc(OC)c1)c1cnc2ccccc2n1 (stereo unspecified)	> 100	> 100 µM	> 100 µM	> 100	> 100	> 100	> 100 µM													
